# Results reported in article PMC12155096 (International Journal of Molecular Sciences, 2025).
# Biological target: human CYP2D6 (Homo sapiens, UniProt P10635)
# Sequence (P10635 whole entry): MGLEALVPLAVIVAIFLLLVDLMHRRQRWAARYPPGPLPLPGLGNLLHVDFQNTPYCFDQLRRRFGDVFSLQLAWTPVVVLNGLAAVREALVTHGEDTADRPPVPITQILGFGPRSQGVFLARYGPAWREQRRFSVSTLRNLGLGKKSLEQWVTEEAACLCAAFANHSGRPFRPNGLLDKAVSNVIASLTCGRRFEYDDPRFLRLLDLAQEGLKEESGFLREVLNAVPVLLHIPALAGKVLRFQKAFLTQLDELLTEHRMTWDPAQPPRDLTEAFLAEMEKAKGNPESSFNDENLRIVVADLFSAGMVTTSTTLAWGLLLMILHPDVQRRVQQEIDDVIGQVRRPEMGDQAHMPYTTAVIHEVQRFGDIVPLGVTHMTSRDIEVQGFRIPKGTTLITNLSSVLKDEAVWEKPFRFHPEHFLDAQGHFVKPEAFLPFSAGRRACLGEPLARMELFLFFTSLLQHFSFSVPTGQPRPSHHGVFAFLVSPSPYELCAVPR
SMILES,CYP2D6 AC50 (half-maximal activity concentration),AC50
CCCCCC=CCC1CC(=O)OC1=O (stereo not shown) [2-Octen-1-ylsuccinic anhydride],Inactive,
O=C(C=Cc1ccccc1)OCCc1ccccc1 [2-Phenylethyl 3-phenylprop-2-enoate],Inactive,
"O=C(O)c1cc(Br)c(O)c(Br)c1 [3,5-Dibromo-4-hydroxybenzoic acid]",Inconclusive inhibitor,
"O=C(Cl)c1cc(Cl)cc(Cl)c1 [3,5-Dichlorobenzoyl chloride]",Inactive,
"OCC(CBr)(CBr)CBr [3-Bromo-2,2-bis(bromomethyl)propanol]",Inactive,
O=C(Cl)c1ccc(F)c(Cl)c1 [3-Chloro-4-fluorobenzoyl chloride],Inconclusive inhibitor,
O=C(c1ccccc1)c1cccc(O)c1 [3-Hydroxybenzophenone],,54.1 µM
OCc1cccc(Oc2ccccc2)c1 [3-Phenoxybenzenemethanol],Inconclusive inhibitor,
O=C(C=Cc1ccccc1)OCCCc1ccccc1 [3-Phenylpropyl cinnamate],Inactive,
CCCCCCCCCCCSCC(=O)O [3-Thiatetradecanoic acid],,20.6 µM
Nc1ccc([N+](=O)[O-])c(C(F)(F)F)c1 [3-Trifluoromethyl-4-nitroanilide],Inactive,
CC(C)(C)c1ccc(C(=O)CCCCl)cc1 [4'-Tert-butyl-4-chlorobutyrophenone],Inactive,
"O=C(Nc1ccc([N+](=O)[O-])cc1)Nc1ccc([N+](=O)[O-])cc1 [4,4'-Dinitrodiphenylurea]",Inactive,
CCC(C)(C)C1CCC(O)CC1 (stereo not shown) [4-(2-Methylbutan-2-yl)cyclohexanol],Inactive,
CCN(CC)c1ccc(C=O)c(O)c1 [4-(Diethylamino)salicylaldehyde],Inactive,
CC(C)CC(O)Cc1ccccc1 (stereo not shown) [4-Methyl-1-phenyl-2-pentanol],Inactive,
"O=C1OC(=O)c2cc(Oc3ccc4c(c3)C(=O)OC4=O)ccc21 [5,5'-Oxybis(2-benzofuran-1,3-dione)]",Inactive,

# Biological target: T1, human CYP1A2 (Homo sapiens, UniProt P05177)
# T1 sequence (P05177 1-516): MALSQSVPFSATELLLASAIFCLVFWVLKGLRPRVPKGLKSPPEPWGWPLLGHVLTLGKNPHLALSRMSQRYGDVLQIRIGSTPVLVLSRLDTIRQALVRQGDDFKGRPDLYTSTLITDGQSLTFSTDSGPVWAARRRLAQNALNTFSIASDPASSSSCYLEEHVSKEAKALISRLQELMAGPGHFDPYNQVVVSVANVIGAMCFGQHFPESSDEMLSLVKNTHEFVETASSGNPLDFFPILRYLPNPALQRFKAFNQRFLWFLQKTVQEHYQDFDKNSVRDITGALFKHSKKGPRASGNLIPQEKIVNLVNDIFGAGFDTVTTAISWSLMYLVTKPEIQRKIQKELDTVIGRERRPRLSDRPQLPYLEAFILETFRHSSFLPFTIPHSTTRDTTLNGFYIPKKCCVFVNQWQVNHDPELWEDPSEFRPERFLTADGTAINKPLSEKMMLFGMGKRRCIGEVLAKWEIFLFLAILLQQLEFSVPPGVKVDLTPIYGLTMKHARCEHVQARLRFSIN
SMILES,AC50,CYP1A2 AC50 (half-maximal activity concentration)
CCCCCC=CCC1CC(=O)OC1=O (stereo not shown) [2-Octen-1-ylsuccinic anhydride],31.9 µM,
O=C(C=Cc1ccccc1)OCCc1ccccc1 [2-Phenylethyl 3-phenylprop-2-enoate],6.35 µM,
"O=C(O)c1cc(Br)c(O)c(Br)c1 [3,5-Dibromo-4-hydroxybenzoic acid]",35.7 µM,
"O=C(Cl)c1cc(Cl)cc(Cl)c1 [3,5-Dichlorobenzoyl chloride]",,Inactive
"OCC(CBr)(CBr)CBr [3-Bromo-2,2-bis(bromomethyl)propanol]",,Inactive
O=C(Cl)c1ccc(F)c(Cl)c1 [3-Chloro-4-fluorobenzoyl chloride],,Inactive
O=C(c1ccccc1)c1cccc(O)c1 [3-Hydroxybenzophenone],36.2 µM,
OCc1cccc(Oc2ccccc2)c1 [3-Phenoxybenzenemethanol],38.5 µM,
O=C(C=Cc1ccccc1)OCCCc1ccccc1 [3-Phenylpropyl cinnamate],12.2 µM,
CCCCCCCCCCCSCC(=O)O [3-Thiatetradecanoic acid],,Inconclusive inhibitor
Nc1ccc([N+](=O)[O-])c(C(F)(F)F)c1 [3-Trifluoromethyl-4-nitroanilide],8.83 µM,
CC(C)(C)c1ccc(C(=O)CCCCl)cc1 [4'-Tert-butyl-4-chlorobutyrophenone],12 µM,
"O=C(Nc1ccc([N+](=O)[O-])cc1)Nc1ccc([N+](=O)[O-])cc1 [4,4'-Dinitrodiphenylurea]",,Inactive
CCC(C)(C)C1CCC(O)CC1 (stereo not shown) [4-(2-Methylbutan-2-yl)cyclohexanol],,Inconclusive inhibitor
CCN(CC)c1ccc(C=O)c(O)c1 [4-(Diethylamino)salicylaldehyde],16.4 µM,
CC(C)CC(O)Cc1ccccc1 (stereo not shown) [4-Methyl-1-phenyl-2-pentanol],37 µM,
"O=C1OC(=O)c2cc(Oc3ccc4c(c3)C(=O)OC4=O)ccc21 [5,5'-Oxybis(2-benzofuran-1,3-dione)]",,Inactive

# Biological target: CYP3A4 (Homo sapiens, UniProt P08684)
# Sequence (P08684 whole entry): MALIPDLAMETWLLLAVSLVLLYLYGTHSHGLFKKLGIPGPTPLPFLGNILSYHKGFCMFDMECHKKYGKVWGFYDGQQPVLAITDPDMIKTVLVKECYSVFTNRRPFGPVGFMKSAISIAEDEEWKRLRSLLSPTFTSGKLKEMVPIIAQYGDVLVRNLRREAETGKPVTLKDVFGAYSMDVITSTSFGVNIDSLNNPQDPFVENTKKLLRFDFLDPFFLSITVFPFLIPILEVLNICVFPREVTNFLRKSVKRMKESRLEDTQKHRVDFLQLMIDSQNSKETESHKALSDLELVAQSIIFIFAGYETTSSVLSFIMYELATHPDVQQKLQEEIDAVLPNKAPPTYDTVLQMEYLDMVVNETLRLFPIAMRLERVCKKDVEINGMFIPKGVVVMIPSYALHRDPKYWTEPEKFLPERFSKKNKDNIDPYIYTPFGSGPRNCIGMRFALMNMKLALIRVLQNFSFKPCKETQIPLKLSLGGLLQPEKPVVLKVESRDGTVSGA
SMILES,AC50,CYP3A4 AC50 (half-maximal activity concentration)
CCCCCC=CCC1CC(=O)OC1=O (stereo not shown) [2-Octen-1-ylsuccinic anhydride],31.9 µM,
O=C(C=Cc1ccccc1)OCCc1ccccc1 [2-Phenylethyl 3-phenylprop-2-enoate],15.7 µM,
"O=C(O)c1cc(Br)c(O)c(Br)c1 [3,5-Dibromo-4-hydroxybenzoic acid]",35.7 µM,
"O=C(Cl)c1cc(Cl)cc(Cl)c1 [3,5-Dichlorobenzoyl chloride]",50.2 µM,
"OCC(CBr)(CBr)CBr [3-Bromo-2,2-bis(bromomethyl)propanol]",,Inactive
O=C(Cl)c1ccc(F)c(Cl)c1 [3-Chloro-4-fluorobenzoyl chloride],55.5 µM,
O=C(c1ccccc1)c1cccc(O)c1 [3-Hydroxybenzophenone],,Inactive
OCc1cccc(Oc2ccccc2)c1 [3-Phenoxybenzenemethanol],64.4 µM,
O=C(C=Cc1ccccc1)OCCCc1ccccc1 [3-Phenylpropyl cinnamate],25.2 µM,
CCCCCCCCCCCSCC(=O)O [3-Thiatetradecanoic acid],87.3 µM,
Nc1ccc([N+](=O)[O-])c(C(F)(F)F)c1 [3-Trifluoromethyl-4-nitroanilide],,Inactive
CC(C)(C)c1ccc(C(=O)CCCCl)cc1 [4'-Tert-butyl-4-chlorobutyrophenone],21.9 µM,
"O=C(Nc1ccc([N+](=O)[O-])cc1)Nc1ccc([N+](=O)[O-])cc1 [4,4'-Dinitrodiphenylurea]",11 µM,
CCC(C)(C)C1CCC(O)CC1 (stereo not shown) [4-(2-Methylbutan-2-yl)cyclohexanol],9.66 µM,
CCN(CC)c1ccc(C=O)c(O)c1 [4-(Diethylamino)salicylaldehyde],,Inactive
CC(C)CC(O)Cc1ccccc1 (stereo not shown) [4-Methyl-1-phenyl-2-pentanol],34.3 µM,
"O=C1OC(=O)c2cc(Oc3ccc4c(c3)C(=O)OC4=O)ccc21 [5,5'-Oxybis(2-benzofuran-1,3-dione)]",30.8 µM,

# Biological target: human CYP2C9 (Homo sapiens, UniProt P11712)
# Sequence (P11712 whole entry): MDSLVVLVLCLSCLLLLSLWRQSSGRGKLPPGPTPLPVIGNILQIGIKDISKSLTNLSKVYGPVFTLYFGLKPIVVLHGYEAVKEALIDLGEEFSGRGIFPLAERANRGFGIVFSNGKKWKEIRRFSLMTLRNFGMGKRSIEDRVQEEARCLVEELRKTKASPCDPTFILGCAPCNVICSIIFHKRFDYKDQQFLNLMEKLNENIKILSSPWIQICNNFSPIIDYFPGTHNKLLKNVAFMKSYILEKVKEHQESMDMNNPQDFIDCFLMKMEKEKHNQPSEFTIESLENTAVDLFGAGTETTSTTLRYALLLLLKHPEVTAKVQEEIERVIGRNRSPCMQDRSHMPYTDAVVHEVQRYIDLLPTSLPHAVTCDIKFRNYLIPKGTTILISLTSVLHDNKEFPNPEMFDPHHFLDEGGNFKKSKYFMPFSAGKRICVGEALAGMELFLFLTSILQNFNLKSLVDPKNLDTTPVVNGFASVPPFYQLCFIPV
SMILES,CYP2C9 AC50 (half-maximal activity concentration),AC50
CCCCCC=CCC1CC(=O)OC1=O (stereo not shown) [2-Octen-1-ylsuccinic anhydride],Inactive,
O=C(C=Cc1ccccc1)OCCc1ccccc1 [2-Phenylethyl 3-phenylprop-2-enoate],,25.6 µM
"O=C(O)c1cc(Br)c(O)c(Br)c1 [3,5-Dibromo-4-hydroxybenzoic acid]",,68.4 µM
"O=C(Cl)c1cc(Cl)cc(Cl)c1 [3,5-Dichlorobenzoyl chloride]",Inconclusive inhibitor,
"OCC(CBr)(CBr)CBr [3-Bromo-2,2-bis(bromomethyl)propanol]",,40.5 µM
O=C(Cl)c1ccc(F)c(Cl)c1 [3-Chloro-4-fluorobenzoyl chloride],Inactive,
O=C(c1ccccc1)c1cccc(O)c1 [3-Hydroxybenzophenone],,3.99 µM
OCc1cccc(Oc2ccccc2)c1 [3-Phenoxybenzenemethanol],,55.8 µM
O=C(C=Cc1ccccc1)OCCCc1ccccc1 [3-Phenylpropyl cinnamate],,19.4 µM
CCCCCCCCCCCSCC(=O)O [3-Thiatetradecanoic acid],,45.2 µM
Nc1ccc([N+](=O)[O-])c(C(F)(F)F)c1 [3-Trifluoromethyl-4-nitroanilide],,39.1 µM
CC(C)(C)c1ccc(C(=O)CCCCl)cc1 [4'-Tert-butyl-4-chlorobutyrophenone],Inactive,
"O=C(Nc1ccc([N+](=O)[O-])cc1)Nc1ccc([N+](=O)[O-])cc1 [4,4'-Dinitrodiphenylurea]",Inactive,
CCC(C)(C)C1CCC(O)CC1 (stereo not shown) [4-(2-Methylbutan-2-yl)cyclohexanol],Inactive,
CCN(CC)c1ccc(C=O)c(O)c1 [4-(Diethylamino)salicylaldehyde],,22.8 µM
CC(C)CC(O)Cc1ccccc1 (stereo not shown) [4-Methyl-1-phenyl-2-pentanol],Inconclusive inhibitor,
"O=C1OC(=O)c2cc(Oc3ccc4c(c3)C(=O)OC4=O)ccc21 [5,5'-Oxybis(2-benzofuran-1,3-dione)]",Inactive,

# Biological target: human CYP2C19 (Homo sapiens, UniProt P33261)
# Sequence (P33261 whole entry): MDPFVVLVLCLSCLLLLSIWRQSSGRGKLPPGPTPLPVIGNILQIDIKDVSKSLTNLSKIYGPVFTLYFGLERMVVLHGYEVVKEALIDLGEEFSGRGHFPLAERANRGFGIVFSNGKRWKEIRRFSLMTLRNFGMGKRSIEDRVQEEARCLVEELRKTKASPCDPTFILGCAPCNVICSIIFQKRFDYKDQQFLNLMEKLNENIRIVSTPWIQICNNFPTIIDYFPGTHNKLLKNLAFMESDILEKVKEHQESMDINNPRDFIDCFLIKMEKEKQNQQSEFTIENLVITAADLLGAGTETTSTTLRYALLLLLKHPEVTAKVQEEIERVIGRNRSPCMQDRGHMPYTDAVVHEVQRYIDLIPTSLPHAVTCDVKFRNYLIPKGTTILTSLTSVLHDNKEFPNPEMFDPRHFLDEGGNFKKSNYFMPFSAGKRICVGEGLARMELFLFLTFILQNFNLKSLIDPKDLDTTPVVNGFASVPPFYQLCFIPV
SMILES,AC50,CYP2C19 AC50 (half-maximal activity concentration)
CCCCCC=CCC1CC(=O)OC1=O (stereo not shown) [2-Octen-1-ylsuccinic anhydride],55 µM,
O=C(C=Cc1ccccc1)OCCc1ccccc1 [2-Phenylethyl 3-phenylprop-2-enoate],20.8 µM,
"O=C(O)c1cc(Br)c(O)c(Br)c1 [3,5-Dibromo-4-hydroxybenzoic acid]",23.8 µM,
"O=C(Cl)c1cc(Cl)cc(Cl)c1 [3,5-Dichlorobenzoyl chloride]",,Inconclusive inhibitor
"OCC(CBr)(CBr)CBr [3-Bromo-2,2-bis(bromomethyl)propanol]",38.3 µM,
O=C(Cl)c1ccc(F)c(Cl)c1 [3-Chloro-4-fluorobenzoyl chloride],,Inconclusive inhibitor
O=C(c1ccccc1)c1cccc(O)c1 [3-Hydroxybenzophenone],23.9 µM,
OCc1cccc(Oc2ccccc2)c1 [3-Phenoxybenzenemethanol],24.7 µM,
O=C(C=Cc1ccccc1)OCCCc1ccccc1 [3-Phenylpropyl cinnamate],30.1 µM,
CCCCCCCCCCCSCC(=O)O [3-Thiatetradecanoic acid],,Inconclusive inhibitor
Nc1ccc([N+](=O)[O-])c(C(F)(F)F)c1 [3-Trifluoromethyl-4-nitroanilide],12.9 µM,
CC(C)(C)c1ccc(C(=O)CCCCl)cc1 [4'-Tert-butyl-4-chlorobutyrophenone],,Inactive
"O=C(Nc1ccc([N+](=O)[O-])cc1)Nc1ccc([N+](=O)[O-])cc1 [4,4'-Dinitrodiphenylurea]",,Inactive
CCC(C)(C)C1CCC(O)CC1 (stereo not shown) [4-(2-Methylbutan-2-yl)cyclohexanol],,Inactive
CCN(CC)c1ccc(C=O)c(O)c1 [4-(Diethylamino)salicylaldehyde],50.6 µM,
CC(C)CC(O)Cc1ccccc1 (stereo not shown) [4-Methyl-1-phenyl-2-pentanol],37 µM,
"O=C1OC(=O)c2cc(Oc3ccc4c(c3)C(=O)OC4=O)ccc21 [5,5'-Oxybis(2-benzofuran-1,3-dione)]",,Inconclusive inhibitor
